In PubChem BioAssay (NCI):
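These data come from cells grown in 96-well plates and exposed to compound for 48 hours at five concentrations. TGI is the concentration that stops growth completely.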

Key:
Assay in all cases: NCI-60 cell line screen, 48 h
[1] = test system: RXF 393 renal
[2] = test system: RPMI-8226 leukemia
[3] = test system: HT29 colon
[4] = test system: DU-145 prostate
[5] = test system: SF-268 CNS
[6] = test system: SR leukemia
[7] = test system: EKVX NSCLC
[8] = test system: OVCAR-4 ovarian
[9] = test system: SN12C renal
[10] = test system: CCRF-CEM leukemia
[11] = test system: K-562 leukemia
[12] = test system: MOLT-4 leukemia
[13] = test system: IGROV1 ovarian
[14] = test system: KM12 colon
[15] = test system: UACC-257 melanoma
[16] = test system: OVCAR-8 ovarian
[17] = test system: OVCAR-5 ovarian
[18] = test system: NCI-H226 lung
[19] = test system: SW-620 colon
[20] = test system: A498 renal
[21] = test system: SK-MEL-28 melanoma
[22] = test system: A549 NSCLC
[23] = test system: 786-0 renal
[24] = test system: NCI-H522 lung
[25] = test system: OVCAR-3 ovarian
[26] = test system: NCI-H460 lung
[27] = test system: CAKI-1 renal
[28] = test system: M14 melanoma
[29] = test system: MCF7 breast
[30] = test system: HS 578T breast
[31] = test system: SK-MEL-5 melanoma
[32] = test system: HOP-92 NSCLC
[33] = test system: HCT-116 colon
[34] = test system: PC-3 prostate
[35] = test system: TK-10 renal
[36] = test system: SNB-19 CNS
[37] = test system: MDA-MB-231 breast
[38] = test system: LOX IMVI melanoma
[39] = test system: ACHN renal
[40] = test system: COLO 205 colon
[41] = test system: U251 CNS
[42] = test system: NCI-H23 lung
[43] = test system: MDA-N
[44] = test system: HCT-15 colon
[45] = test system: HCC-2998 colon
[46] = test system: SF-295 CNS
[47] = test system: SF-539 CNS
[48] = test system: NCI/ADR-RES ovarian
[49] = test system: UO-31 renal
[50] = test system: UACC-62 melanoma
[51] = test system: SK-MEL-2 melanoma
[52] = test system: SK-OV-3 ovarian
[53] = test system: HOP-62 NSCLC
[54] = test system: SNB-75 CNS
[55] = test system: MALME-3M melanoma
[56] = test system: T-47D breast
[57] = test system: HL-60(TB) leukemia
[58] = test system: MDA-MB-435

## COc1c2c(cc3nc4ccccc4nc13)CC[C@H](NC(C)=O)c1cc(=O)c(SC)ccc1-2
[1]
  TGI: > 49.9 µM
[2]
  TGI: > 100 µM
[3]
  TGI: 6.23 µM
[4]
  TGI: 51.3 µM
[5]
  TGI: > 56.5 µM
[6]
  TGI: > 32.5 µM
[7]
  TGI: 8.63 µM
[8]
  TGI: 38.7 µM
[9]
  TGI: 34.2 µM
[10]
  TGI: > 100 µM
[11]
  TGI: > 42.2 µM
[12]
  TGI: > 65.4 µM
[13]
  TGI: 4.36 µM
[14]
  TGI: 3 µM
[15]
  TGI: 30.5 µM
[16]
  TGI: > 32.7 µM
[17]
  TGI: > 100 µM
[18]
  TGI: 32.2 µM
[19]
  TGI: > 100 µM
[20]
  TGI: > 90.9 µM
[21]
  TGI: > 100 µM
[22]
  TGI: > 100 µM
[23]
  TGI: 39.8 µM
[24]
  TGI: 1690 nM
[25]
  TGI: > 100 µM
[26]
  TGI: > 100 µM
[27]
  TGI: > 42.6 µM
[28]
  TGI: 19.3 µM
[29]
  TGI: > 100 µM
[30]
  TGI: 700 nM
[31]
  TGI: 10.8 µM
[32]
  TGI: > 55.9 µM
[33]
  TGI: 27.3 µM
[34]
  TGI: > 69.6 µM
[35]
  TGI: > 59.3 µM
[36]
  TGI: > 100 µM
[37]
  TGI: 36.1 µM
[38]
  TGI: > 71.6 µM
[39]
  TGI: > 64.5 µM
[40]
  TGI: 3.31 µM
[41]
  TGI: 10.6 µM
[42]
  TGI: 777 nM
[43]
  TGI: 329 nM
[44]
  TGI: 19 µM
[45]
  TGI: > 24.6 µM
[46]
  TGI: > 44.6 µM
[47]
  TGI: 5.28 µM
[48]
  TGI: > 100 µM
[49]
  TGI: 28.7 µM
[50]
  TGI: 44.6 µM
[51]
  TGI: > 55.2 µM
[52]
  TGI: > 70.9 µM
[53]
  TGI: > 100 µM

## N#CC(=N)c1ncn(CCO)c1NC(=O)C(F)(F)F
[1]
  TGI: > 100 µM
[2]
  TGI: > 100 µM
[3]
  TGI: > 100 µM
[4]
  TGI: > 100 µM
[5]
  TGI: > 100 µM
[6]
  TGI: > 100 µM
[7]
  TGI: > 100 µM
[8]
  TGI: > 100 µM
[9]
  TGI: > 100 µM
[10]
  TGI: > 100 µM
[54]
  TGI: > 100 µM
[11]
  TGI: > 100 µM
[13]
  TGI: > 100 µM
[14]
  TGI: > 100 µM
[15]
  TGI: > 100 µM
[16]
  TGI: > 100 µM
[17]
  TGI: > 100 µM
[18]
  TGI: > 100 µM
[19]
  TGI: > 100 µM
[55]
  TGI: > 100 µM
[20]
  TGI: > 100 µM
[21]
  TGI: > 100 µM
[22]
  TGI: > 100 µM
[23]
  TGI: > 100 µM
[24]
  TGI: > 100000 nM
[25]
  TGI: > 100 µM
[26]
  TGI: > 100 µM
[27]
  TGI: > 100 µM
[28]
  TGI: > 100 µM
[30]
  TGI: > 100000 nM
[31]
  TGI: > 100 µM
[33]
  TGI: > 100 µM
[34]
  TGI: > 100 µM
[35]
  TGI: > 100 µM
[36]
  TGI: > 100 µM
[37]
  TGI: > 100 µM
[38]
  TGI: > 100 µM
[39]
  TGI: > 100 µM
[40]
  TGI: > 100 µM
[41]
  TGI: > 100 µM
[42]
  TGI: > 100000 nM
[43]
  TGI: > 100000 nM
[44]
  TGI: > 100 µM
[56]
  TGI: > 100 µM
[45]
  TGI: > 100 µM
[46]
  TGI: > 100 µM
[57]
  TGI: > 100 µM
[47]
  TGI: > 100 µM
[48]
  TGI: > 100 µM
[58]
  TGI: > 100 µM
[50]
  TGI: > 100 µM
[51]
  TGI: > 100 µM
[52]
  TGI: > 100 µM
[53]
  TGI: > 100 µM
